The text below walks through data of patent US11427548B2 (Arvinas Operations, Inc., priority 2015, dated 2022).

SMILES strings stand for the structures. Like-named read-outs stand apart in the source and are kept apart here.

In the assay the target is T1, Androgen Receptor (Homo sapiens, UniProt P10275).
T1 construct: endogenous in cells; host or cells: VCaP cells
T1 sequence (P10275 1-920): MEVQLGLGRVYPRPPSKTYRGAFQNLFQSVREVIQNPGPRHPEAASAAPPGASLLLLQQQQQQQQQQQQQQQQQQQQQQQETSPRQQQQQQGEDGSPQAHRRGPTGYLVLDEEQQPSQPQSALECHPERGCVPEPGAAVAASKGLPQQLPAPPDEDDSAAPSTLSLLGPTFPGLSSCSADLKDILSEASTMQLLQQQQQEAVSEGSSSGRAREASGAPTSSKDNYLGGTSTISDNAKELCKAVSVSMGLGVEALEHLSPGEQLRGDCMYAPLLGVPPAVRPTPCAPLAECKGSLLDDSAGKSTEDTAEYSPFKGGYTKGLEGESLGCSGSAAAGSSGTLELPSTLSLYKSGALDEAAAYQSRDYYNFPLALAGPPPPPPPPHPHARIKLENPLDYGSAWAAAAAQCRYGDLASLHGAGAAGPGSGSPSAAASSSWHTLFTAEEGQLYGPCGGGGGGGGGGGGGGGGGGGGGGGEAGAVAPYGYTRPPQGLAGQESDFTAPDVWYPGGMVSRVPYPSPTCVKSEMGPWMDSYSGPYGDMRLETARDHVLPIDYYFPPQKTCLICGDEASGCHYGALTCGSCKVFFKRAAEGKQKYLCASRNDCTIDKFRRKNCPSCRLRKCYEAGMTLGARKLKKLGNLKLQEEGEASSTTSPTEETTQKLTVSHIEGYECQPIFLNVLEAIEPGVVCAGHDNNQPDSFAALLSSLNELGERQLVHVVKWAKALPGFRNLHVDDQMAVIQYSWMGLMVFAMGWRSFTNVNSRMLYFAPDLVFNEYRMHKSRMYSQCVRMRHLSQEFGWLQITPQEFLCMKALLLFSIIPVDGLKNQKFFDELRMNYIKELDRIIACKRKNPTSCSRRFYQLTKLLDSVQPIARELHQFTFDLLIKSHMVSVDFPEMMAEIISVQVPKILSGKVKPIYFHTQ
Description: Androgen Receptor ELISA assay (PathScan AR ELISA) in VCaP cells: AR degradation, Dmax and DC50. Type of assay: cell-based. As to conditions: Table 36; for DC50: read-out: VCaP DC50; for Dmax: VCaP. In short, it runs like this: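 VCaP cells, 30,000/well, grown ≥3 days in phenol red-free RPMI with 5% charcoal-stripped FBS; compound added in 0.1% DMSO with 0.1 nM R1881, 7 half-log doses, 24 h. Lysate AR quantified by PathScan sandwich ELISA, HRP/TMB read at 450 nm, giving DC50 and Dmax.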

Setting [1] is: VCaP cells, read-out: VCaP Dmax (%).
Setting [2] is: read-out: VCaP Dmax (%), VCaP cells.

Take `Cc1ncsc1-c1ccc([C@H](C)NC(=O)[C@@H]2C[C@@H](O)CN2C(=O)[C@@H](c2ncc(CCCCCNc3ccc(C(=O)N[C@H]4C(C)(C)[C@H](Oc5ccc(C#N)c(Cl)c5)C4(C)C)nc3)n2C)C(C)C)cc1` [Example 691, N-((1r,3r)-3-(3-chloro-4-cyanophenoxy)-2,2,4,4-tetramethylcyclobutyl)-5-((5-(2-((R)-1-((2S,4R)-4-hydroxy-2-(((S)-1-(4-(4-methylthiazol-5-yl)phenyl)ethyl)carbam-oyl)pyrrolidin-1-yl)-3-methyl-1-oxobutan-2-yl)-1-methyl-1H-imidazol-5-yl)pentyl)amino)picolin-amide]: for the setting “VCaP cells”, the DC50 was over 501 nM. Under setting [1], the Dmax was under 25%.

For `Cc1ncsc1-c1ccc([C@H](C)NC(=O)[C@@H]2C[C@@H](O)CN2C(=O)[C@H](c2ncc(CCCCCNc3ccc(C(=O)N[C@H]4C(C)(C)[C@H](Oc5ccc(C#N)c(Cl)c5)C4(C)C)nc3)n2C)C(C)C)cc1` [Example 692, N-((1r,3r)-3-(3-chloro-4-cyanophenoxy)-2,2,4,4-tetramethylcyclobutyl)-5-((5-(2-((S)-1-((2S,4R)-4-hydroxy-2-(((S)-1-(4-(4-methylthiazol-5-yl)phenyl)ethyl)carbam-oyl)pyrrolidin-1-yl)-3-methyl-1-oxobutan-2-yl)-1-methyl-1H-imidazol-5-yl)pentyl)amino)picolin-amide], where the note is “VCaP cells”, the DC50 was over 501 nM. In addition, the Dmax under setting [1] was under 25%.

Consider `Cc1ncsc1-c1ccc([C@H](C)NC(=O)[C@@H]2C[C@@H](O)CN2C(=O)[C@@H](NC(=O)CCCC/C(CCCc2ccc(C(=O)N[C@H]3C(C)(C)[C@H](Oc4ccc(C#N)c(Cl)c4)C3(C)C)nc2)=N\O)C(C)(C)C)cc1` [Example 693, N-((1r,3r)-3-(3-chloro-4-cyanophenoxy)-2,2,4,4-tetramethylcyclobutyl)-5-((E)-9-(((S)-1-((2S,4R)-4-hydroxy-2-(((S)-1-(4-(4-methylthiazol-5-yl)phenyl)ethyl)carbam-oyl)pyrrolidin-1-yl)-3,3-dimethyl-1-oxobutan-2-yl)amino)-4-(hydroxyimino)-9-oxononyl)picolinamide], for which the DC50 (VCaP cells) was under 50 nM. The Dmax under setting [1] lay in the range of 26 to 50%.

`Cc1ncsc1-c1ccc(C(C)NC(=O)C2CC(O)CN2C(=O)C(NC(=O)CN2CCOCCOCCN(c3ccc(C(=O)NC4C(C)(C)C(Oc5ccc(C#N)c(Cl)c5)C4(C)C)cc3)CCOCCOCC2)C(C)(C)C)cc1` [Example 694, (2S,4R)-1-((S)-2-(2-(16-(4-(((1r,3r)-3-(3-chloro-4-cyanophenoxy)-2,2,4,4-tetramethylcyclobutyl)carbamoyl)phenyl)-1,4,10,13-tetraoxa-7,16-diazacyclooctadecan-7-yl)acetamido)-3,3-dimethylbutanoyl)-4-hydroxy-N-((S)-1-(4-(4-methylthiazol-5-yl)phenyl)ethyl)pyrrolidine-2-carboxamide]: the DC50 (VCaP cells) was under 50 nM. For the same molecule, under setting [2], the Dmax was 51 to 70%.

`CCO/N=C(\CCCCC(=O)N[C@H](C(=O)N1C[C@H](O)C[C@H]1C(=O)N[C@@H](C)c1ccc(-c2scnc2C)cc1)C(C)(C)C)CCCc1ccc(C(=O)N[C@H]2C(C)(C)[C@H](Oc3ccc(C#N)c(Cl)c3)C2(C)C)nc1` [Example 695, N-((1r,3r)-3-(3-chloro-4-cyanophenoxy)-2,2,4,4-tetramethylcyclobutyl)-5-((E)-4-(ethoxyimino)-9-(((S)-1-((2S,4R)-4-hydroxy-2-(((S)-1-(4-(4-methylthiazol-5-yl)phenyl)ethyl)carbam-oyl)pyrrolidin-1-yl)-3,3-dimethyl-1-oxobutan-2-yl)amino)-9-oxononyl)picolinamide]: for the setting “VCaP cells”, the 50% degradation concentration (DC50) lay in the range of 51 to 500 nM. The Dmax under setting [1] is 51 to 70%.

`CC(C)[C@H](C(=O)N1C[C@H](O)C[C@H]1C(=O)N[C@@H](C)c1ccc(C#N)cc1)c1cc(OCCN2CCN(c3ccc(C(=O)N[C@H]4C(C)(C)[C@H](Oc5ccc(C#N)c(Cl)c5)C4(C)C)cn3)CC2)no1` [Example 696, N-((1r,3r)-3-(3-chloro-4-cyanophenoxy)-2,2,4,4-tetramethylcyclobutyl)-6-(4-(2-((5-((S)-1-((2S,4R)-2-(((S)-1-(4-cyanophenyl)ethyl)carb-amoyl)-4-hydroxypyrrolidin-1-yl)-3-methyl-1-oxobutan-2-yl)isoxazol-3-yl)oxy)ethyl)piperazin-1-yl)nicotinamide]: the DC50 (VCaP cells) was under 50 nM. Besides, the Dmax under setting [2] is under 25%.

`CC(NC(=O)C1CC(O)CN1C(=O)C(c1cc(OCCN2CCN(c3ccc(C(=O)NC4C(C)(C)C(Oc5ccc(C#N)c(Cl)c5)C4(C)C)cn3)CC2)no1)C(C)C)c1ccc(C#N)cc1` [Example 697, N-((1r,3r)-3-(3-chloro-4-cyanophenoxy)-2,2,4,4-tetramethylcyclobutyl)-6-(4-(2-((5-((R)-1-((2S,4R)-2-(((S)-1-(4-cyanophenyl)ethyl)carb-amoyl)-4-hydroxypyrrolidin-1-yl)-3-methyl-1-oxobutan-2-yl)isoxazol-3-yl)oxy)ethyl)piperazin-1-yl)nicotinamide]: the 50% degradation concentration (DC50) (VCaP cells) is under 50 nM. Besides, under setting [2], the Dmax was 26 to 50%.

With `Cc1ncsc1-c1ccc([C@H](C)NC(=O)[C@@H]2C[C@@H](O)CN2C(=O)[C@@H](NC(=O)CN2CCN(CCCOCc3cc(C(=O)N[C@@H](C)Cn4ccc(-c5ccc(C#N)c(Cl)c5)n4)n[nH]3)CC2)C(C)(C)C)cc1` [Example 698, N-((S)-1-(3-(3-chloro-4-cyanophenyl)-1H-pyrazol-1-yl)propan-2-yl)-5-((3-(4-(2-(((S)-1-((2S,4R)-4-hydroxy-2-(((S)-1-(4-(4-methylthiazol-5-yl)phenyl)ethyl)carbam-oyl)pyrrolidin-1-yl)-3,3-dimethyl-1-oxobutan-2-yl)amino)-2-oxoethyl)piperazin-1-yl)propoxy)methyl)-1H-pyrazole-3-carboxamide], the DC50 (VCaP cells) was under 50 nM. Besides, the Dmax under setting [1] was over 71%.

For the molecule `Cc1ncsc1-c1ccc([C@H](C)NC(=O)[C@@H]2C[C@@H](O)CN2C(=O)[C@@H](NC(=O)COCCN(CCCc2ccc(C(=O)N[C@H]3C(C)(C)[C@H](Oc4ccc(C#N)c(Cl)c4)C3(C)C)nc2)CCC(F)(F)F)C(C)(C)C)cc1` [Example 699, N-((1r,3r)-3-(3-chloro-4-cyanophenoxy)-2,2,4,4-tetramethylcyclobutyl)-5-(3-((2-(2-(((S)-1-((2S,4R)-4-hydroxy-2-(((S)-1-(4-(4-methylthiazol-5-yl)phenyl)ethyl)carbam-oyl)pyrrolidin-1-yl)-3,3-dimethyl-1-oxobutan-2-yl)amino)-2-oxoethoxy)ethyl)(3,3,3-trifluoropropyl)amino)propyl)picolinamide], the DC50 (VCaP cells) is under 50 nM. Moreover, the Dmax under setting [2] lay within 26 to 50%.

Take `CNC(=O)[C@H]1CCCN1C(=O)C(NC(=O)COCCN1CCN(c2ccc(C(=O)N[C@H]3C(C)(C)[C@H](Oc4ccc(C#N)c(Cl)c4)C3(C)C)cn2)CC1)C(C)(C)C` (stereo partly drawn) [Example 700, N-((1r,3r)-3-(3-chloro-4-cyanophenoxy)-2,2,4,4-tetramethylcyclobutyl)-6-(4-(2-(2-(((S)-3,3-dimethyl-1-((S)-2-(methylcarbamoyl)pyrroli-din-1-yl)-1-oxobutan-2-yl)amino)-2-oxoethoxy)ethyl)pipera-zin-1-yl)nicotinamide]: where the note is “VCaP cells”, the DC50 is over 501 nM. Besides, the Dmax under setting [1] was under 25%.

Turning to `Cc1ncsc1-c1ccc([C@H](C)NC(=O)[C@@H]2C[C@@H](O)CN2C(=O)[C@@H](c2ncc(CCCN3CCN(c4ccc(C(=O)NC5C(C)(C)C(Oc6ccc(C#N)c(Cl)c6)C5(C)C)cn4)CC3)n2C)C(C)C)cc1` (stereo partly drawn) [Example 701, N-((1r,3r)-3-(3-chloro-4-cyanophenoxy)-2,2,4,4-tetramethylcyclobutyl)-6-(4-(3-(2-((R)-1-((2S,4R)-4-hydroxy-2-(((S)-1-(4-(4-methylthiazol-5-yl)phenyl)ethyl)carbam-oyl)pyrrolidin-1-yl)-3-methyl-1-oxobutan-2-yl)-1-methyl-1H-imidazol-5-yl)propyl)piperazin-1-y)nicotinamide], under “VCaP cells”, the “VCaP Dmax (%)” value is listed as “+ (Dmax ≤ 25%)” and the DC50 was over 501 nM.

For the molecule `Cc1ncsc1-c1ccc([C@H](C)NC(=O)[C@@H]2C[C@@H](O)CN2C(=O)[C@H](c2ncc(CCCN3CCN(c4ccc(C(=O)NC5C(C)(C)C(Oc6ccc(C#N)c(Cl)c6)C5(C)C)cn4)CC3)n2C)C(C)C)cc1` (stereo partly drawn) [Example 702, N-((1r,3r)-3-(3-chloro-4-cyanophenoxy)-2,2,4,4-tetramethylcyclobutyl)-6-(4-(3-(2-((S)-1-((2S,4R)-4-hydroxy-2-(((S)-1-(4-(4-methylthiazol-5-yl)phenyl)ethyl)carbam-oyl)pyrrolidin-1-yl)-3-methyl-1-oxobutan-2-yl)-1-methyl-1H-imidazol-5-yl)propyl)piperazin-1-yl)nicotinamide], for the setting “VCaP cells”, the “VCaP Dmax (%)” value is “+ (Dmax ≤ 25%)” and the DC50 is over 501 nM.
